Test results reported in publication PMC5958064, “Single cell analysis of kynurenine and System L amino acid transport in T cells” (Nature Communications, 2018).

Key:
[1] = biological target: T1, System L transporter SLC7A5 (Mus musculus, UniProt Q9Z127); assay: Flow cytometry kynurenine uptake assay (450 nm fluorescence) in T cells; format: cell-based; details: for IC50: 37 °C
T1 construct: endogenous in cells
Excerpt: For cell surface staining, antibodies conjugated to FITC, PE, APC, Alexafluor 647 (A647), APC-efluor780 (APCe780), and PerCPCy5.5 were obtained from either BD Pharmingen, eBioscience or Biolegend. Fc receptors were blocked using Fc Block (BD Pharmingen). Antibody clones used were: CD4 (RM4-5), CD8a (53-6.7), TCRβ (H57-597), CD44 (IM7), CD45.1 (A20), CD45.2 (104) and CD98 (RC388). Cells were fixed using 1% paraformaldehyde. Standard intracellular cytokine staining protocols were followed for IFNγ (clone XMG1.2; Biolegend) staining. Data were acquired on a LSR Fortessa II with DIVA software or a FACSVerse flow cytometer with FACSuite software (BD Biosciences) and analysed using FlowJo software version 9.9.5 (TreeStar).
Start with at least 1 × 10^6 cells per condition, to obtain at least 200,000 events analysed by flow cytometry at the end of the protocol. […] If required, surface cell antibody staining should be performed prior to uptake assay protocol. This may be performed at room temperature or 4 °C, however test samples must be warmed to 37 °C, e.g. in water bath, prior to kynurenine uptake. (As with all multi-parameter flow cytometry, appropriate antibody staining controls must also be performed.) Samples can be fixed immediately after uptake assay by addition of 4% (vol/vol) paraformaldehyde (PFA; to a final concentration of 1%) for 30 min at room temperature.
For kynurenine uptake assay; pre-warm kynurenine (800 μM, in HBSS), BCH (40 mM, in HBSS) and lysine (20 mM, HBSS) and HBSS to 37 °C. After surface antibody staining of samples, resuspend cells in 200 μl warmed HBSS (1–5 × 10^6 cells in FACS tubes, or scale accordingly into plates). Keep cells in water bath at 37 °C. Add 100 μl of HBSS, or BCH or lysine to appropriate samples. Add 100 μl HBSS to no kynurenine controls (final volume 400 μl). Finally, add 100 μl kynurenine to appropriate samples. Stop uptake after 4 min by adding 125 μl 4% PFA for 30 min at room temperature, in the dark. The final concentrations for uptake assay are: 200 μM kynurenine; +/-10 mM BCH; +/-5 mM lysine. After fixation, wash cells twice in PBS/0.5% BSA and resuspend in PBS/0.5% BSA prior to acquisition on flow cytometer. The 405 nm laser and 450/50 BP filter are used for kynurenine fluorescence detection.
To monitor kynurenine uptake in live cells, acquire data on flow cytometer immediately following addition of kynurenine and plot fluorescence against time.

[2] = biological target: T1, System L transporter SLC7A5; assay: Radiolabelled 3H-kynurenine uptake in T cells; format: cell-based
Experimental: To activate primary T cells, spleens and/or lymph nodes (LN) were removed, disaggregated and red blood cells lysed. Cells were stimulated with 1 μg/ml of the CD3 monoclonal antibody (2C11) and 2 μg/ml anti-CD28 (37.51; ebiosciences) to trigger the TCR. Naive CD4^+ T cells and 24 h TCR-activated CD4^+ T cells were purified using CD4 isolation kit (EasySep, STEMCELL Technologies). […] Proleukin, Novartis) for a further 3-5 days. To generate TH1s and TH17s, murine CD8^+ T cells were depleted from lymph node preparations using CD8 depletion kit (EasySep, STEMCELL Technologies). […] RnD Systems) and IL-2 (20 ng/ml) and for TH17s; cytokines IL-6 (50 ng/ml, Peprotech), IL-1β (10 ng/ml, Peprotech) and TGFβ (2 ng/ml, Peprotech). TH17s were cultured in IMDM (Gibco). All other cells were cultured in RPMI 1640 containing L-glutamine (Gibco). Culture media was supplemented with 10% FBS (Gibco), 50 μM β-mercaptoethanol (β-ME, Sigma) and penicillin/streptomycin (Gibco). Cells were incubated at 37 °C with 5% CO2 throughout. […] Cells were pelleted below the oil, the aqueous supernatant solution, followed by the silicon oil/dibutyl phthalate mixture was aspirated, and the cell pellet underneath resuspended in 200 μl NaOH (0.5 M) and β-radioactivity measured by liquid scintillation counting in a Beckman LS 6500 Multi-Purpose Scintillation Counter (Beckman Coulter). […] Where indicated, the sodium free buffer was prepared using TMACl as described in Baird et al.[35] Data are expressed as molecules radiotracer per cell per minute. […] All other chemicals were obtained from Sigma.

AHR = assay: Cyp1a1 mRNA induction in TH17cond CD4+ T cells (qPCR); format: cell-based, mouse
Experimental: To activate primary T cells, spleens and/or lymph nodes (LN) were removed, disaggregated and red blood cells lysed. Cells were stimulated with 1 μg/ml of the CD3 monoclonal antibody (2C11) and 2 μg/ml anti-CD28 (37.51; ebiosciences) to trigger the TCR. Naive CD4^+ T cells and 24 h TCR-activated CD4^+ T cells were purified using CD4 isolation kit (EasySep, STEMCELL Technologies). […] Proleukin, Novartis) for a further 3–5 days. To generate TH1s and TH17s, murine CD8^+ T cells were depleted from lymph node preparations using CD8 depletion kit (EasySep, STEMCELL Technologies). […] RnD Systems) and IL-2 (20 ng/ml) and for TH17s; cytokines IL-6 (50 ng/ml, Peprotech), IL-1β (10 ng/ml, Peprotech) and TGFβ (2 ng/ml, Peprotech). TH17s were cultured in IMDM (Gibco). All other cells were cultured in RPMI 1640 containing L-glutamine (Gibco). Culture media was supplemented with 10% FBS (Gibco), 50 μM β-mercaptoethanol (β-ME, Sigma) and penicillin/streptomycin (Gibco). Cells were incubated at 37 °C with 5% CO2 throughout. […] RNA was purified using the RNeasy RNA purification Mini Kit (Qiagen) (Genomic DNA was digested with RNase-free DNase (Qiagen) following manufacturer instructions) and reverse-transcribed using the iScript cDNA synthesis kit (BioRad). Quantitative PCR was performed in 96-well plate format using iQ SYBR Green-based detection (BioRad) on a BioRad iCycler.

[3] = summary over CTL, TH1 and 24 h TCR-stimulated T cells

T1 sequence (Q9Z127 whole entry): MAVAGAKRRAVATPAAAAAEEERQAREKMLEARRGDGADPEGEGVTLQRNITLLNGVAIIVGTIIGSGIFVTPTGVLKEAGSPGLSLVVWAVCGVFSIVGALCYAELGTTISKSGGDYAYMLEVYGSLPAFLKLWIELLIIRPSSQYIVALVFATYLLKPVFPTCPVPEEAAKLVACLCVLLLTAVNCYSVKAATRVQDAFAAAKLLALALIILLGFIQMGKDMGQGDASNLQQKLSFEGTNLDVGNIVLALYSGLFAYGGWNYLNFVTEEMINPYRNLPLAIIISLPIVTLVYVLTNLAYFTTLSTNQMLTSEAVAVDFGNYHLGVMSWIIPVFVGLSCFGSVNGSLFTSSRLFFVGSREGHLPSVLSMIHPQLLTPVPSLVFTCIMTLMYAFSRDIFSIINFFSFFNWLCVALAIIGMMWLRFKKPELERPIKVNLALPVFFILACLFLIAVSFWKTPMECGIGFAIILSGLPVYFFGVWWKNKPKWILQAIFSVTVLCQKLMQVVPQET
T1 sequence (P10852 whole entry partner): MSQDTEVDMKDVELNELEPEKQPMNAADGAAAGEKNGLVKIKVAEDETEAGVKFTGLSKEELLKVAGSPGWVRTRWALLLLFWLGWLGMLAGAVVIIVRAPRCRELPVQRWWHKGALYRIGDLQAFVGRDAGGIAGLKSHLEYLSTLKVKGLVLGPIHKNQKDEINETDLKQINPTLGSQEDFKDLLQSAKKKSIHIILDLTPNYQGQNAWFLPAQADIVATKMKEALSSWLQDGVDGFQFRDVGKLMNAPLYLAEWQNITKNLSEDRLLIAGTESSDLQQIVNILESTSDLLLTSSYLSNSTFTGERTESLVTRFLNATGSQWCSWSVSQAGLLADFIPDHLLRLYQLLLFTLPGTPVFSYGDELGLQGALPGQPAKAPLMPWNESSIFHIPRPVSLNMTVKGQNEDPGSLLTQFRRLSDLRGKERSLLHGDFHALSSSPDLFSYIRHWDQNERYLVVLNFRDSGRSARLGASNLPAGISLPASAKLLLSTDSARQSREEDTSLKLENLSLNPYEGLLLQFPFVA

Structure (SMILES): NC1(C(=O)O)CC2CCC1C2 (centres unmarked) [BCH, 2-amino-2-norbornanecarboxylic acid]
- Percentage of kynurenine uptake blocked by BCH, Kyn MFI ([1]; 24 h CD3/CD28 stimulated T cells (TCR), 450 nm fluorescence emission): 77.1 ± 14.7%
- effect on kynurenine uptake ([1]; CD3/CD28 activated wild-type T cells in co-culture, 5 mM lysine, BCH): BCH treatment did
- IC50 ([1]; CTL, 4 min): 492 ± 45 µM
- Percentage of kynurenine uptake blocked by BCH, Kyn MFI ([1]; CTL, 450 nm fluorescence emission): 78.3 ± 4.5%
- IC50 ([1]; D7 rLM CD8+ effector T cells from spleen, ex vivo, 4 min): 161 ± 34 µM
- effect on kynurenine transport ex vivo ([1]; D7 rLM-infected CD8+ T cells, BCH 10 mM, Leu 5 mM, Lys 5 mM): blocked
- effect on kynurenine transport (450 nm fluorescence) ([1]; TCR-stimulated CD8+ T cells or CTLs, 4 min, BCH 10 mM, Leu 5 mM, Lys 5 mM): prevented
- Percentage of kynurenine uptake blocked by BCH, Kyn MFI ([1]; TH1, 450 nm fluorescence emission): 81.0 ± 9.0%
- kynurenine transport blocked as measured by flow cytometry [1, 3]: 80%
- Percentage of kynurenine uptake blocked by BCH, 3H-Kyn ([2]; 24 h CD3/CD28 stimulated T cells (TCR), 4 min uptake): 79.1 ± 11.3%
- Percentage of kynurenine uptake blocked by BCH, 3H-Kyn ([2]; CTL, 4 min uptake): 92.5 ± 0.9%
- Percentage of kynurenine uptake blocked by BCH, 3H-Kyn ([2]; TH1, 4 min uptake): 90.2 ± 2.1%
- effect on 3H-kynurenine transport ([2]; TH1 cells and CTLs, BCH 5 mM): inhibited
- radiolabelled kynurenine uptake blocked [2, 3]: 80–90%
- effect on FICZ-induced Cyp1a1 mRNA (AHR; D3 TH17cond CD4+ T cells, FICZ 300 nM 2 h, BCH 25 mM): does not block FICZ mediated Cyp1a1 mRNA induction
- effect on kynurenine-induced Cyp1a1 mRNA (AHR; D3 TH17cond CD4+ T cells, kynurenine 100 μM 2 h, BCH 25 mM): impedes Cyp1a1 mRNA induction in response to kynurenine

Structure (SMILES): Nc1ccccc1C(=O)CC(N)C(=O)O (centres unmarked) [kynurenine]
- temperature dependence of kynurenine-mediated increase in MFI ([1]; CTLs, 4 min, 37 °C vs 4 °C): temperature sensitive
- Km ([1]; IL-2 maintained CTLs, flow cytometry assay (MFI), read-out: Km for the initial rate of kynurenine transport): 267 µM
- Km ([2]; CTLs, rounded value in Discussion, read-out: Km of kynurenine transport in CTLs): ~200 µM
- Km ([2]; IL-2 maintained CTLs, radiolabelled kynurenine transport assay, read-out: Km for the initial rate of kynurenine transport): 213 µM
- sodium dependence of uptake ([2]; TCR-activated CD4+ T cells, TH1s and CTLs, Na+ containing vs Na+-free buffer): sodium independent
- EC50 (AHR; D3 TH17cond CD4+ T cells, 2 h, read-out: EC50 to drive Cyp1A1 mRNA expression): 11.1 µM
- Cyp1a1 mRNA induction, D3 versus D5 post activation (AHR; TH17cond CD4+ T cells, kynurenine 100 μM or FICZ 300 nM, 2 h): strikingly higher on day 3 post activation compared to day 5 cells
